From ChEMBL document CHEMBL3351722, “Optimized inhibitors of soluble epoxide hydrolase improve in vitro target residence time and in vivo efficacy” (J Med Chem, 2014)

Tests used:
Mus musculus [1] = experiment: (§1) Cmax in Swiss Webster mouse at 0.3 mg/kg, po administered as cassette dosing; format: ADME, organism-based; design: dose 0.3 mg/kg, route oral; settings: in vivo
[2] = (§2) AUC in Swiss Webster mouse at 0.3 mg/kg, po administered as cassette dosing; format: ADME, organism-based, Plasma; design: dose 0.3 mg/kg, route oral; settings: Swiss Webster, plasma
[3] = (§3) Half life in Swiss Webster mouse at 0.3 mg/kg, po administered as cassette dosing; format: ADME, organism-based; design: dose 0.3 mg/kg, route oral; settings: Swiss Webster, in vivo
[4] = Lipophilicity, log P of the compound by shake-flask method; format: physicochemical; settings: octanol/water
in vivo [5] = settings: Swiss Webster, mouse, po, 0.3 mg/kg
[6] = as §1; format: ADME, organism-based; design: dose 0.3 mg/kg, route oral; settings: Swiss Webster, in vivo
Mus musculus [7] = experiment: as §2; format: ADME, organism-based, Plasma; design: dose 0.3 mg/kg, route oral; settings: in vivo
Mus musculus [8] = experiment: as §3; format: ADME, organism-based; design: dose 0.3 mg/kg, route oral; settings: in vivo
[9] = AUC in Sprague-Dawley rat at 0.3 mg/kg, po administered as cassette dosing; format: ADME, organism-based; design: dose 0.3 mg/kg, route oral; settings: plasma
[10] = Cmax in Sprague-Dawley rat at 0.3 mg/kg, po administered as cassette dosing; format: ADME, organism-based; design: dose 0.3 mg/kg, route oral; settings: in vivo
[11] = Half life in Sprague-Dawley rat at 0.3 mg/kg, po administered as cassette dosing; format: ADME, organism-based; design: dose 0.3 mg/kg, route oral; settings: in vivo
in vivo [12] = settings: Sprague-Dawley, rat, po, 0.3 mg/kg

Row | Compound | AUC [2] [µM·h] | half-life [3] [h] | logP [4] | Tmax (in vivo [5]) [h] | Cmax [6] [nM] | other results
1 | CS(=O)(=O)N1CCC(NC(=O)Nc2ccc(OC(F)(F)F)cc2)CC1 | 5.3 | 15 | – | – | – | Cmax (Mus musculus [1]): 370 nM
2 | CC(=O)N1CCC(NC(=O)Nc2ccc(C(F)(F)F)cc2)CC1 | – | – | 2.74 | – | – | –
3 | CS(=O)(=O)N1CCC(NC(=O)Nc2ccc(C(F)(F)F)cc2)CC1 | 4.67 | 22 | 2.94 | 8 | 130 | –
4 | CC(C)S(=O)(=O)N1CCC(NC(=O)Nc2ccc(C(F)(F)F)cc2)CC1 | – | – | 3.39 | – | – | –
5 | CCC(C)C(=O)N1CCC(NC(=O)N[C@H]2CC[C@H](CC)CC2)CC1 (stereo partly drawn) | – | – | – | – | 5 | AUC (Mus musculus [7]): 0.037 µM·h; t1/2 (Mus musculus [8]): 12 h
6 | CC(C)C(=O)N1CCC(NC(=O)Nc2ccc(C(F)(F)F)cc2)CC1 | 19.7 | 6 | – | 4 | 1160 | AUC [9]: 7.3 µM·h; Cmax [10]: 510 nM; half-life [11]: 5.4 h; Tmax (in vivo [12]): 4 h
7 | O=C(Nc1ccc(C(F)(F)F)cc1)NC1CCN(C(=O)C2CC2)CC1 | 24.6 | 17 | 3.18 | 6 | 960 | –
8 | CCC(C)C(=O)N1CCC(NC(=O)Nc2ccc(C(F)(F)F)cc2)CC1 (stereo not drawn) | 3.29 | 6 | 3.83 | 0.5 | 320 | –
9 | CC[C@H](C)C(=O)N1CCC(NC(=O)Nc2ccc(C(F)(F)F)cc2)CC1 | 4.94 | 5 | 3.84 | 1 | 435 | AUC [9]: 5.72 µM·h; Cmax [10]: 790 nM; half-life [11]: 4.9 h; Tmax (in vivo [12]): 1 h
10 | CC(C)CC(=O)N1CCC(NC(=O)Nc2ccc(C(F)(F)F)cc2)CC1 | – | – | 3.86 | – | – | –
11 | O=C(Nc1ccc(C(F)(F)F)cc1)NC1CCN(C(=O)CC(F)(F)F)CC1 | 8.85 | 15.4 | 3.99 | 8 | 330 | –
12 | O=C(Nc1ccc(C(F)(F)F)cc1)NC1CCN(C(=O)CCC(F)(F)F)CC1 | – | – | 3.66 | – | – | –
13 | CCC(C)C(=O)N1CCC(NC(=O)Nc2ccc(C(C)C)cc2)CC1 (stereo not drawn) | 0.2 | – | 4.21 | 0.5 | 90 | –
14 | CCC(C)C(=O)N1CCC(NC(=O)Nc2ccc(C(C)(C)C)cc2)CC1 (stereo not drawn) | – | – | 5.12 | – | – | –
15 | CCC(C)C(=O)N1CCC(NC(=O)Nc2ccc(C(F)(C(F)(F)F)C(F)(F)F)cc2)CC1 (stereo not drawn) | 1.6 | 4.5 | 4.96 | 2.5 | 135 | –
16 | CCC(C)C(=O)N1CCC(NC(=O)Nc2ccc(OC(F)(F)F)cc2)CC1 (stereo not drawn) | 3.3 | 6 | 3.98 | 2 | 235 | –
17 | CCC(C)C(=O)N1CCC(NC(=O)NC2CCCCCC2)CC1 (stereo not drawn) | 0.075 | 8.4 | – | 0.5 | 3 | –
18 | CC(C)C(=O)N1CCC(NC(=O)Nc2ccc(OC(F)(F)F)cc2)CC1 | 19.5 | 9 | – | 5 | 900 | AUC [9]: 12 µM·h; Cmax [10]: 890 nM; half-life [11]: 3.5 h; Tmax (in vivo [12]): 1 h
19 | CC[C@H](C)C(=O)N1CCC(NC(=O)Nc2ccc(OC(F)(F)F)cc2)CC1 | 2.53 | 7.7 | 3.97 | 4 | 195 | AUC [9]: 2.59 µM·h; Cmax [10]: 297 nM; half-life [11]: 4.2 h; Tmax (in vivo [12]): 4 h
20 | O=C(Nc1ccc(C(F)(C(F)(F)F)C(F)(F)F)cc1)NC1CCN(C(=O)CC(F)(F)F)CC1 | 9.6 | 18.9 | 4.89 | 8 | 365 | –
21 | CCS(=O)(=O)N1CCC(NC(=O)Nc2ccc(C(F)(F)F)cc2)CC1 | – | – | 3.08 | – | – | –
22 | CCCS(=O)(=O)N1CCC(NC(=O)Nc2ccc(C(F)(F)F)cc2)CC1 | – | – | 3.39 | – | – | –
23 | O=C(Nc1ccc(C(F)(F)F)cc1)NC1CCN(S(=O)(=O)C2CC2)CC1 | – | – | 3.39 | – | – | –
24 | O=C(Nc1ccc(C(F)(F)F)cc1)NC1CCN(S(=O)(=O)CC(F)(F)F)CC1 | 4.27 | 25 | 3.42 | 8 | 100 | –
25 | CCCCS(=O)(=O)N1CCC(NC(=O)Nc2ccc(C(F)(F)F)cc2)CC1 | 0.245 | 7.4 | 3.95 | 1 | 30 | –
26 | CCCCS(=O)(=O)N1CCC(NC(=O)Nc2ccc(OC(F)(F)F)cc2)CC1 | 0.22 | 2 | 4.13 | 1.2 | 65 | –
27 | CC(=O)N1CCC(NC(=O)NC23CC4CC(CC(C4)C2)C3)CC1 [AR9281] | 0.183 | – | – | – | 30 | –
